Source: ChEMBL document CHEMBL1130877, “The synthesis of new adenosine A3 selective ligands containing bioisosteric isoxazoles” (Bioorg Med Chem Lett, 1998)

Key:
[1] = target: T1, Adenosine receptor A1 (Rattus norvegicus, UniProt P25099); assay: Binding affinity for adenosine A1 receptor as inhibition of 3[H]-R-PIA binding in rat brain; assay type: tissue-based
T1 sequence (P25099 whole entry): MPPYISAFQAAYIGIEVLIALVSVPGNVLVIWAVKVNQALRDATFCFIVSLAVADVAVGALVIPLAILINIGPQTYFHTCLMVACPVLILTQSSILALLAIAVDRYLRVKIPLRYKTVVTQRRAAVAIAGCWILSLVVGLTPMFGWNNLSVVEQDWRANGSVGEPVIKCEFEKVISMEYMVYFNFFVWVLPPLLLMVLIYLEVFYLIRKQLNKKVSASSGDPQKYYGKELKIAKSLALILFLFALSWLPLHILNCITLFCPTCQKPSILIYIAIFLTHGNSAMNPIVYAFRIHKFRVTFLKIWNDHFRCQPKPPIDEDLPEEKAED

[2] = target: T2, Adenosine receptor A3 (Homo sapiens, UniProt P0DMS8); assay: Binding affinity for adenosine A3 receptor as inhibition of [125I]AB-MECA binding to human receptor expressed in HEK 293 cells; assay type: cell-based, HEK293
T2 sequence (P0DMS8 whole entry): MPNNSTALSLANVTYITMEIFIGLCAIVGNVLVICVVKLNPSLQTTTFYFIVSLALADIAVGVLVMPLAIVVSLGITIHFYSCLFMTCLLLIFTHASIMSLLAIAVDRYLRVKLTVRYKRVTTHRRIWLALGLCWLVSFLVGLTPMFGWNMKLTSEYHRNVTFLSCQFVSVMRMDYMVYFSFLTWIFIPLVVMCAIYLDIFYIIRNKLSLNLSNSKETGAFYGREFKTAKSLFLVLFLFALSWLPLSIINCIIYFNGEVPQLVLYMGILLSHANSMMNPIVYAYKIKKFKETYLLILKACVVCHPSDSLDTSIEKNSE

[3] = target: Adenosine receptor A2a (Rattus norvegicus, UniProt P30543); assay: Binding affinity for adenosine A2a receptor as inhibition of 3[H]-CGS 21680 binding in rat striatum; assay type: tissue-based
Sequence of Adenosine receptor A2a (P30543 whole entry): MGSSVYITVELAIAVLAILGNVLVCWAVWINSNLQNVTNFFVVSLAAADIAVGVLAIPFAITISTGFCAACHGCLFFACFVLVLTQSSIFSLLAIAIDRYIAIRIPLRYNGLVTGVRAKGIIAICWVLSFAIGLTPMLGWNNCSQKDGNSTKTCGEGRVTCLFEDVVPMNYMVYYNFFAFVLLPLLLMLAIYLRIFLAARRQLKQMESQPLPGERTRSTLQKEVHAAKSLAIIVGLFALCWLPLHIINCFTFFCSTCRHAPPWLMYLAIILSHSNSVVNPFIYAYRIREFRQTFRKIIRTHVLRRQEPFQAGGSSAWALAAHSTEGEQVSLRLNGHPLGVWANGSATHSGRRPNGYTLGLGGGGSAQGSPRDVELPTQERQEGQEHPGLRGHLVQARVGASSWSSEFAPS

Row | SMILES | Ki [1] [nM] | Ki [2] [nM] | Ki [3] [nM]
1 | O[C@@H]1[C@H](O)[C@@H](c2ccon2)O[C@H]1n1cnc2c(NCc3cccc(I)c3)nc(Cl)nc21 | 1900 | 7.8 | 1900
2 | CONc1nc(Cl)nc2c1ncn2[C@@H]1O[C@H](CCl)[C@@H](O)[C@H]1O |  | 26 | 
3 | CONc1nc(Cl)nc2c1ncn2[C@@H]1O[C@H](c2ccon2)[C@@H](O)[C@H]1O | 620 | 31 | > 10000
4 | CNC(=O)[C@H]1O[C@@H](n2cnc3c(NCc4ccccc4)ncnc32)[C@H](O)[C@@H]1O | 2400 | 41 | 2100
5 | C=C[C@H]1O[C@@H](n2cnc3c(NOC)nc(Cl)nc32)[C@H](O)[C@@H]1O | 1230 | 20 | > 10000
